The text below walks through data of the supplement of paper PMC11061612.

The structures appear in SMILES notation.

Assay [1] relates to U-698-M. Briefly: Bliss excess, mean over the matrix (fraction); higher = more synergy. The note with it: U-[…], B-Cell Non-Hodgkin's Lymphoma. In outline: (§1)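 Bliss excess equals the observed combination effect minus the expected value EA + EB − EA·EB, where EA and EB are the effects of each agent alone. Combination Emax is the second-highest inhibition within the matrix. Inhibition was scaled from CellTiter-Glo 2.0 luminescence, with 0 set by vehicle wells and 1 by blank wells, after 72 hours of two-drug dosing of cells plated in 1536-well plates.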

Assay [2] deals with U-698-M. Description: combination Emax (second highest fraction inhibited in the dose matrix, 72 h); higher = more inhibition. The note with it: B-Cell Non-Hodgkin's Lymphoma. In outline: as §1
Setting [3] is: first compound max 0.001 µM, partner max 10 µM, 7x7.
The mark [4] stands for this setting: first compound max 0.3 µM, partner max 1 µM, 7x7.
Setting [5] is: first compound max 0.3 µM, partner max 10 µM, 7x7.
The mark [6] stands for this setting: first compound max 10 µM, partner max 1 µM.
[7] abbreviates: first compound max 10 µM, partner max 0.3 µM, 7x7.
[8] abbreviates: first compound max 10 µM, partner max 20 µM, 7x7.
The mark [9] stands for this setting: first compound max 1 µM, partner max 1 µM, 7x7.
[10] abbreviates: first compound max 10 µM, partner max 1 µM, 7x7.
The mark [11] stands for this setting: first compound max 10 µM, partner max 10 µM, 7x7.
[12] abbreviates: first compound max 10 µM, partner max 5 µM, 7x7.
Setting [13] is: first compound max 1 µM, partner max 10 µM, 7x7.
Setting [14] is: first compound max 1 µM, partner max 3 µM, 7x7.
[15] abbreviates: first compound max 1 µM, partner max 1 µM.

On to `COc1cc2c(cc1OCCCCCOc1cc3c(cc1OC)C(=O)N1C=C(C)C[C@H]1C=N3)N=C[C@@H]1CC(C)=CN1C2=O` [SG3199] + O=C(c1cc(Cc2n[nH]c(=O)c3ccccc23)ccc1F)N1CCN(C(=O)C2CC2)CC1 [Olaparib], for which the Bliss excess with U-698-M [1] (setting [3]) was -0.0531. In addition, the “combination Emax” value in the assay on U-698-M [2] (setting [3]) was 0.0822.

In the case of `CCc1c2c(nc3ccc(O)cc13)-c1cc3c(c(=O)n1C2)COC(=O)[C@]3(O)CC` [SN-38] + CN(C)CCCOc1ccc(-c2ccc3ncc4c(c3c2)n(C2CCOCC2)c(=O)n4C)cn1 [AZD0156], the Bliss excess in the assay with U-698-M [1] (setting [4]) was found to be 0.0615. Further, the “combination Emax” value in the assay on U-698-M [2] (setting [4]) worked out at 0.908.

For `CCc1c2c(nc3ccc(O)cc13)-c1cc3c(c(=O)n1C2)COC(=O)[C@]3(O)CC` [SN-38] + O=C(c1cc(Cc2n[nH]c(=O)c3ccccc23)ccc1F)N1CCN(C(=O)C2CC2)CC1 [Olaparib], the Bliss excess in the assay with U-698-M [1] (setting [5]) was found to be 0.0095. The “combination Emax” value in the assay on U-698-M [2] (setting [5]) came out at 0.813.

Regarding `N#Cc1cnc(Nc2cc(NC[C@H]3CNCCO3)c(C(F)(F)F)cn2)cn1` [SRA737] + C=CCn1c(=O)c2cnc(Nc3ccc(N4CCN(C)CC4)cc3)nc2n1-c1cccc(C(C)(C)O)n1 [AZD1775], in the assay on U-698-M [1] (setting [6]), the Bliss excess worked out at 0.0975. Also, the “combination Emax” value in the assay with U-698-M [2] (first compound max 10 µM, partner max 1 µM, may be a limit of the assay) stood at 1.

`N#Cc1cnc(Nc2cc(NC[C@H]3CNCCO3)c(C(F)(F)F)cn2)cn1` [SRA737] + CCc1c2c(nc3ccc(O)cc13)-c1cc3c(c(=O)n1C2)COC(=O)[C@]3(O)CC [SN-38]: the Bliss excess in the assay on U-698-M [1] (setting [7]) was -0.0229. Besides, the “combination Emax” value with U-698-M [2] (setting [7]) stood at 0.963.

`N#Cc1cnc(Nc2cc(NC[C@H]3CNCCO3)c(C(F)(F)F)cn2)cn1` [SRA737] + Nc1ccn([C@@H]2O[C@H](CO)[C@@H](O)C2(F)F)c(=O)n1 [Gemcitabine]: the Bliss excess in the assay on U-698-M [1] (setting [7]) was 0.111. Also, the “combination Emax” value in the assay on U-698-M [2] (setting [7]) came to 0.916.

For the molecule `N#Cc1cnc(Nc2cc(NC[C@H]3CNCCO3)c(C(F)(F)F)cn2)cn1` [SRA737] + O=c1[nH]cc(F)c(=O)[nH]1 [5-Fluorouracil], in the assay with U-698-M [1] (setting [8]), the Bliss excess was -0.0673. In the assay with U-698-M [2] (setting [8]), the “combination Emax” value came to 0.798.

Regarding `C[C@@H](c1ccc2nccn2c1)n1nnc2ncc(-c3cnn(C)c3)nc21` [Savolitinib] + CC1(C)CCC(CN2CCN(c3ccc(C(=O)NS(=O)(=O)c4ccc(NCC5CCOCC5)c([N+](=O)[O-])c4)c(Oc4cnc5[nH]ccc5c4)c3)CC2)=C(c2ccc(Cl)cc2)C1 [Venetoclax], the Bliss excess with U-698-M [1] (setting [9]) was -0.0313. Further, the “combination Emax” value in the assay with U-698-M [2] (setting [9]) stood at 0.191.

Consider `C[C@@H](c1ccc2nccn2c1)n1nnc2ncc(-c3cnn(C)c3)nc21` [Savolitinib] + Cc1c2c(nn1C)CSCc1cc(n(C)n1)CSc1cc(c3ccccc3c1)OCCCc1c(C(=O)O)n(C)c3c-2c(Cl)ccc13 [AZD5991], for which, in the assay on U-698-M [1] (setting [9]), the Bliss excess was -0.0477. For the same molecule, the “combination Emax” value in the assay with U-698-M [2] (setting [9]) was 0.978.

In the case of `Cn1cnc2c(F)c(Nc3ccc(Br)cc3Cl)c(C(=O)NOCCO)cc21` [Selumetinib] + C=CCn1c(=O)c2cnc(Nc3ccc(N4CCN(C)CC4)cc3)nc2n1-c1cccc(C(C)(C)O)n1 [AZD1775], the Bliss excess in the assay on U-698-M [1] (setting [6]) was -0.0472. Besides, the “combination Emax” value in the assay on U-698-M [2] (setting [6]) came to 0.892.

`Cn1cnc2c(F)c(Nc3ccc(Br)cc3Cl)c(C(=O)NOCCO)cc21` [Selumetinib] + CC(C)n1c(=O)n(C)c2cnc3cc(F)c(-c4ccc(OCCCN5CCCCC5)nc4)cc3c21 [AZD1390]: the Bliss excess with U-698-M [1] (setting [7]) was -0.0149. Moreover, the “combination Emax” value in the assay on U-698-M [2] (setting [7]) amounted to 0.109.

As to `Cn1cnc2c(F)c(Nc3ccc(Br)cc3Cl)c(C(=O)NOCCO)cc21` [Selumetinib] + CCN(CCO)CCCOc1ccc2c(Nc3cc(CC(=O)Nc4cccc(F)c4)[nH]n3)ncnc2c1 [AZD2811], the Bliss excess with U-698-M [1] (setting [10]) is 0.0099. Besides, the “combination Emax” value in the assay on U-698-M [2] (setting [10]) was found to be 0.253.

Regarding `Cn1cnc2c(F)c(Nc3ccc(Br)cc3Cl)c(C(=O)NOCCO)cc21` [Selumetinib] + C[C@@H]1COCCN1C2=NC(=NC(=C2)C3(CC3)[S@](=N)(=O)C)C4=C5C=CNC5=NC=C4 [AZD6738], the Bliss excess with U-698-M [1] (setting [11]) is -0.0501. Moreover, the “combination Emax” value in the assay on U-698-M [2] (setting [11]) was found to be 0.766.

Regarding `Cc1nc(-c2cn3c(n2)-c2ccc(-c4cnn(C(C)(C)C(N)=O)c4)cc2OCC3)n(C(C)C)n1` [Taselisib] + O=C(Nc1ccc2[nH]nc(-c3ccncc3)c2c1)[C@@H]1CCN(CC(=O)N2CCN(c3ccc(-c4ncccn4)cc3)CC2)C1 [SCH772984], the Bliss excess in the assay on U-698-M [1] (setting [12]) is -0.0189. Further, the “combination Emax” value in the assay on U-698-M [2] (setting [12]) was 0.606.

In the case of `CC(=O)Nc1cccc(-n2c(=O)n(C3CC3)c(=O)c3c(Nc4ccc(I)cc4F)n(C)c(=O)c(C)c32)c1` [Trametinib] + Cc1nc(-c2cn3c(n2)-c2ccc(-c4cnn(C(C)(C)C(N)=O)c4)cc2OCC3)n(C(C)C)n1 [Taselisib], in the assay with U-698-M [1] (setting [13]), the Bliss excess was -0.0211. Moreover, the “combination Emax” value in the assay on U-698-M [2] (setting [13]) worked out at 0.416.

For the molecule `CC1(C)CCC(CN2CCN(c3ccc(C(=O)NS(=O)(=O)c4ccc(NCC5CCOCC5)c([N+](=O)[O-])c4)c(Oc4cnc5[nH]ccc5c4)c3)CC2)=C(c2ccc(Cl)cc2)C1` [Venetoclax] + C1CN(CCC1(C(=O)N[C@@H](CCO)C2=CC=C(C=C2)Cl)N)C3=NC=NC4=C3C=CN4 [Capivasertib], the Bliss excess in the assay on U-698-M [1] (setting [14]) was -0.0112. The “combination Emax” value in the assay on U-698-M [2] (setting [14]) was determined as 0.756.

Consider `CC1(C)CCC(CN2CCN(c3ccc(C(=O)NS(=O)(=O)c4ccc(NCC5CCOCC5)c([N+](=O)[O-])c4)c(Oc4cnc5[nH]ccc5c4)c3)CC2)=C(c2ccc(Cl)cc2)C1` [Venetoclax] + C=CCn1c(=O)c2cnc(Nc3ccc(N4CCN(C)CC4)cc3)nc2n1-c1cccc(C(C)(C)O)n1 [AZD1775], for which the Bliss excess with U-698-M [1] (setting [15]) came to 0.109. The “combination Emax” value in the assay with U-698-M [2] (setting [15]) is 0.978.

With `CC1(C)CCC(CN2CCN(c3ccc(C(=O)NS(=O)(=O)c4ccc(NCC5CCOCC5)c([N+](=O)[O-])c4)c(Oc4cnc5[nH]ccc5c4)c3)CC2)=C(c2ccc(Cl)cc2)C1` [Venetoclax] + CCN(CCO)CCCOc1ccc2c(Nc3cc(CC(=O)Nc4cccc(F)c4)[nH]n3)ncnc2c1 [AZD2811], the Bliss excess in the assay on U-698-M [1] (setting [9]) was -0.0213. Also, the “combination Emax” value in the assay on U-698-M [2] (setting [9]) was found to be 0.6.

In the case of `CC1(C)CCC(CN2CCN(c3ccc(C(=O)NS(=O)(=O)c4ccc(NCC5CCOCC5)c([N+](=O)[O-])c4)c(Oc4cnc5[nH]ccc5c4)c3)CC2)=C(c2ccc(Cl)cc2)C1` [Venetoclax] + CN(C)CCCOc1ccc(-c2ccc3ncc4c(c3c2)n(C2CCOCC2)c(=O)n4C)cn1 [AZD0156], the Bliss excess with U-698-M [1] (setting [9]) was 0.0133. For the same molecule, the “combination Emax” value in the assay on U-698-M [2] (setting [9]) was 0.72.

Regarding `CC1(C)CCC(CN2CCN(c3ccc(C(=O)NS(=O)(=O)c4ccc(NCC5CCOCC5)c([N+](=O)[O-])c4)c(Oc4cnc5[nH]ccc5c4)c3)CC2)=C(c2ccc(Cl)cc2)C1` [Venetoclax] + COc1cc(Nc2ncc3c(n2)-c2ccc(Cl)cc2C(c2c(F)cccc2OC)=NC3)ccc1C(=O)O [Alisertib], in the assay on U-698-M [1] (setting [13]), the Bliss excess turned out to be 0.0827. In addition, the “combination Emax” value in the assay on U-698-M [2] (setting [13]) was 0.592.

Consider `CC1(C)CCC(CN2CCN(c3ccc(C(=O)NS(=O)(=O)c4ccc(NCC5CCOCC5)c([N+](=O)[O-])c4)c(Oc4cnc5[nH]ccc5c4)c3)CC2)=C(c2ccc(Cl)cc2)C1` [Venetoclax] + CS(=O)(=O)CCNCc1ccc(-c2ccc3ncnc(Nc4ccc(OCc5cccc(F)c5)c(Cl)c4)c3c2)o1 [Lapatinib], for which the Bliss excess in the assay with U-698-M [1] (setting [13]) is -0.0151. Besides, the “combination Emax” value in the assay with U-698-M [2] (setting [13]) was found to be 0.503.

Consider `CC1(C)CCC(CN2CCN(c3ccc(C(=O)NS(=O)(=O)c4ccc(NCC5CCOCC5)c([N+](=O)[O-])c4)c(Oc4cnc5[nH]ccc5c4)c3)CC2)=C(c2ccc(Cl)cc2)C1` [Venetoclax] + C[C@@H]1COCCN1C2=NC(=NC(=C2)C3(CC3)[S@](=N)(=O)C)C4=C5C=CNC5=NC=C4 [AZD6738], for which the Bliss excess with U-698-M [1] (setting [13]) was -0.0392. The “combination Emax” value in the assay with U-698-M [2] (setting [13]) was determined as 0.86.

Consider `CC1(C)CCC(CN2CCN(c3ccc(C(=O)NS(=O)(=O)c4ccc(NCC5CCOCC5)c([N+](=O)[O-])c4)c(Oc4cnc5[nH]ccc5c4)c3)CC2)=C(c2ccc(Cl)cc2)C1` [Venetoclax] + C[C@@H](Nc1cc(F)cc(F)c1)c1cc(C(=O)N(C)C)cc2c(=O)cc(N3CCOCC3)oc12 [AZD8186], for which, in the assay with U-698-M [1] (setting [14]), the Bliss excess is -0.0045. Also, the “combination Emax” value in the assay with U-698-M [2] (setting [14]) was determined as 0.564.
